As a reminder, the IC50 is the concentration at which inhibition is half-maximal.

Structures are written as SMILES.

The record followed here is BindingDB's records for patent US20240158413 (Soter Biopharma, 2024).

The target in this experiment is T1, Gonadotropin-releasing hormone receptor (Homo sapiens, UniProt P30968).
T1 sequence (P30968 whole entry): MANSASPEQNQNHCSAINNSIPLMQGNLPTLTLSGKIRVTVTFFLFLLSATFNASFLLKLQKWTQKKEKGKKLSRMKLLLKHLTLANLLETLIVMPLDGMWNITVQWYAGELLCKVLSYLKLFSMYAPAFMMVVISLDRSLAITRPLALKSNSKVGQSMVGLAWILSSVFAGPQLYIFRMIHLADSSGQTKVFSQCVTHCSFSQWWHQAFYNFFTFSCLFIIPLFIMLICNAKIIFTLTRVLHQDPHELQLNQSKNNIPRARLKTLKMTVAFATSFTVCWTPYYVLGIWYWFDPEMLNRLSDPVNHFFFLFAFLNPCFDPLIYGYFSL
As to the kind of experiment: Inhibitory Activity Assay. Here is the method: GnRH/HEK293 (human embryonic kidney cell 293) cultured cells in the logarithmic growth phase were washed with DPBS (Dulbecco's phosphate buffered saline) buffer, and an appropriate amount of 0.05% EDTA (ethylenediaminetetraacetic acid)-trypsin was added. The cells were placed in a carbon dioxide incubator at 37° C. for digestion for 1-2 minutes, and then removed from the incubator. A medium was added to the cells to terminate the digestion. Cells were dispersed by repeated pipetting and harvested by centrifugation. The cells were seeded into a 384-well Poly-Lysine-Coated. Cell Plate at a density of 20,000 cells per well. […] The fluorescence signal was read. Then 10 μL of the reference compound as an agonist was added, and the fluorescent signal was read. […] The fluorescent signal was read. Then 10 μL of agonist with a concentration of 6×EC50 was added to the cell plate and the fluorescent signal was read.IC50 of the compound to inhibit the calcium flow of gonadotropin-releasing hormone receptor, i.e., the drug concentration when the Ca2+ flow was inhibited by half in the cells stably expressing the GnRH receptor, was calculated. The IC50 of the drug was calculated by GraphPad Prism 5.0 software.

`Cc1c(F)ccc2c1COc1cc(C3C(=O)Nc4csc(C(=O)O)c4C3=O)c(F)cc1OCCCO2` (configuration not stated) [US20240158413, Compound 1] gave a 50% inhibitory concentration (IC50) of 3.2 nM.
In the case of `O=C(O)c1scc2c1C(=O)C(c1cc3c(cc1F)OCC1(CC1)COc1ccc(F)c(F)c1CO3)C(=O)N2` (configuration not stated) [US20240158413, Compound 2] it was 9.2 nM.
